In patent US20250268253A1, “MULTIFUNCTIONAL NATURAL PROTECTANT SYSTEMS WITH HYDROXYACETOPHENONE” (BARENTZ NORTH AMERICA, LLC, priority 2021, published 2025):

What was measured:
mixture of bacteria = experiment: CTFA Preservative Challenge Test in shampoo, mixed bacteria; type: cell-based; settings: for concentration of the component alone required to yield 100% retardation (Qa, Qb): percent by weight in shampoo, plate count <10 cfu/g after 7 days; for Day 7 Count Mixed Bacteria: shampoo containing the sample, initial count 4×10^6 cfu/mL, surviving organisms on day 7
Experimental: (§1) The CTFA Preservative Challenge Test was performed on a shampoo containing the samples below against a mixture of fungi (C. albicans (ATCC #10231) and A. brasiliensis (ATCC #16404)) having an initial count of 7.9×10^5 cfu/mL or a mixture of bacteria having an initial count of 4×10^6 cfu/mL. The shampoos inoculated with bacteria were allowed to stand for 14 days and the shampoos inoculated with fungi were allowed to stand for 7 days. The samples were evaluated for surviving organisms on day 7 for fungi-innoculated shampoos and days 7 and 14 for bacteria-innoculated shampoos.
From the table, synergism for the combinations above against mixed bacteria in shampoo was calculated by the method described in C. E. Kull et al., “Mixtures of Quaternary Ammonium Compounds and Long-chain Fatty Acids as Antifungal Agents”, Applied Microbiology, 9:538-541 (1961). The synergism value (QA/Qa+QB/Qb) was determined. […] Qa is the concentration of the first component alone (in percent by weight) required to yield 100% retardation of the bacteria or fungi. Qb is the concentration of the second component alone (in percent by weight) required to yield 100% retardation of the bacteria or fungi. […] Values for (QA/Qa+QB/Qb) of 1 and greater represent an additive effect and an antagonistic effect, respectively.

[1] = tested on: mixture of fungi (C. albicans (ATCC #10231) and A. brasiliensis (ATCC #16404)); experiment: CTFA Preservative Challenge Test in shampoo, mixed fungi; type: cell-based; settings: shampoo containing the sample; initial count 7.9×10^5 cfu/mL; surviving organisms on day 7
Experimental: as §1
From the table, synergism for the combinations above against mixed bacteria in shampoo was calculated by the method described in C. E. Kull et al., “Mixtures of Quaternary Ammonium Compounds and Long-chain Fatty Acids as Antifungal Agents”, Applied Microbiology, 9:538-541 (1961). The synergism value (QA/Qa+QB/Qb) was determined. […] Qa is the concentration of the first component alone (in percent by weight) required to yield 100% retardation of the bacteria or fungi. Qb is the concentration of the second component alone (in percent by weight) required to yield 100% retardation of the bacteria or fungi. When the value of (QA/Qa+QB/Qb) is less than one, the mixture is synergistic. Values for (QA/Qa+QB/Qb) of 1 and greater represent an additive effect and an antagonistic effect, respectively. […]

| Structure (SMILES) | concentration of the component alone required to yield 100% retardation (Qa, Qb) (mixture of bacteria) | Day 7 Count Mixed Bacteria (mixture of bacteria) | Day 7 Count Mixed Fungi [1] |
| --- | --- | --- | --- |
| CC(=O)c1ccc(O)cc1 [0.35% hydroxyacetophenone, 4-hydroxyacetophenone] | > 0.35% | 3.2 × 10^2 cfu/mL | 1.5 × 10^2 cfu/mL |
| OCCCO [5% 1,3-propanediol, 1,3-propanediol] | > 5% | 5.2 × 10^2 cfu/mL | 9.2 × 10^2 cfu/mL |
